The IC50 is the point on the concentration scale where inhibition reaches its midpoint. One may read the EC50 as the concentration that produces a half-maximal response.

Read-outs that look alike come from different tables or passages of the source.

The target of test [1] is WT-SQR (SDHC), IPO323 mitochondria (Zymoseptoria tritici, UniProt F9X9V6+F9XH52+O42772). In words: Succinate-quinone (SQR) SDHI sensitivity assay on purified mitochondria, IPO323. It counts as biochemical. The procedure: (§1) Succinate-ubiquinone oxidoreductase (SQR) inhibition assays were performed on mitochondrial extracts from a panel of strains that were (i) either carrying a unique C-subunit encoding gene (ZtSDHC1, ZtSDHC1_A84I or Zt-SDHC3), or (ii) carrying two C-subunit encoding genes ZtSDHC1 and ZtSDHC3 (Table 1).
(§2) Biomass production, mitochondrial extraction and purification were performed as described in [14]. Succinate: ubiquinone/DCPIP sensitivity tests were performed as described in [14] with minor modification. The different mitochondrial suspensions were adjusted to similar initial velocity (1 OD595nm hour^-1) and inhibitor concentrations ranged between 0.047nM and 50μM with uniform 4x dilution steps (11 concentrations + DMSO control). Calculated absorbance slopes (OD/min) were used for IC50 calculations using GraphPad Prism 6.07 software non-linear curve fitting against log inhibitor concentrations.

Test [2] deals with SQR (SDHC / altC) of IPO323 pTet::SDHC3 transformant, repressed (Zymoseptoria tritici, UniProt A0A1X7RQW2+F9X9V6+F9XH52+O42772). In words: Succinate-quinone (SQR) SDHI sensitivity assay on purified mitochondria, IPO323 pTet::SDHC3 repressed. It counts as biochemical. As to conditions: for IC50: IPO323 pTet::SDHC3 transformant grown in presence of 30 mg.L^-1 doxycycline, mean of three ± SD. As to the method:
as §1
(§3) Biomass production, mitochondrial extraction and purification were performed as described in [14]. Succinate: ubiquinone/DCPIP sensitivity tests were performed as described in [14] with minor modification.

Test [3] deals with SQR (SDHC / altC) of IPO323 pTet::SDHC3 transformant, induced. In words: Succinate-quinone (SQR) SDHI sensitivity assay on purified mitochondria, IPO323 pTet::SDHC3 induced. The following applies: IPO323 pTet::SDHC3 transformant grown in the absence of doxycycline; mean of three ± SD. The class given is biochemical, Zymoseptoria tritici. As to the method: as §1, §3
Test [4] deals with SQR of 06STD024 (SDHC / altC) mitochondria (Zymoseptoria tritici, UniProt A0A1X7RQW2+F9X9V6+F9XH52+O42772). In words: Succinate-quinone (SQR) SDHI sensitivity assay on purified mitochondria, 06STD024. The class given is biochemical. The following applies: for IC50: mitochondria of field isolate 06STD024, mean of three ± SD. As to the method:
as §1, §3

The target in test [5] is SQR (SDHC) of D024 SDHC3 KO mitochondria (Zymoseptoria tritici, UniProt F9X9V6+F9XH52+O42772). In words: Succinate-quinone (SQR) SDHI sensitivity assay on purified mitochondria, 06STD024 SDHC3 KO. It counts as biochemical. The following applies: for RF (resistance factor), D024 SDHC3 KO (SDHC): IC50 ratio compared to IPO323 values; for IC50: mitochondria of 06STD024 ZtSDHC3 deletion mutant, mean of three ± SD. The procedure:
as §1, §2

The target of test [6] is altC-SQR (altC) of D024 SDHC1 KO mitochondria (Zymoseptoria tritici, UniProt A0A1X7RQW2+F9X9V6+O42772). In words: Succinate-quinone (SQR) SDHI sensitivity assay on purified mitochondria, 06STD024 SDHC1 KO. It counts as biochemical. As to conditions: for IC50: mitochondria of 06STD024 ZtSDHC1 deletion mutant (pure altC-SQR), mean of three ± SD. The procedure:
as §1, §3

In test [7] the test system is Zymoseptoria tritici field and genetically modified strains. In words: Liquid culture assay for fungicide sensitivity determination. It counts as cell-based. As to conditions: Zymoseptoria tritici, liquid culture sensitivity. The procedure: Sensitivity towards commercial fungicides was determined for a set of 99 SHA-SDHI-naïve Z. tritici field isolates sampled in Europe between 2006 and 2009. The EC50 of these isolates was determined in liquid growth assays and the data obtained compared for each possible pair of SDHI fungicides (cross-resistance (XR) plots, Fig 1). […] Comparative succinate-quinone reductase (SQR) enzyme inhibition tests were performed with mitochondria extracted from a panel of SHA-SDHIs tolerant and sensitive isolates.
In order to characterize in more depth the mechanisms driving sensitivity differences across the isolates, a subset of eight isolates carrying the ZtSDHC3 gene was analyzed for their sensitivity to SDHIs, alt-SDHC expression and splicing patterns. Liquid culture growth sensitivity tests were performed to determine EC50s for this set of isolates towards a wide range of commercial and research SDHIs (S5 Table).
Pre-culture of the inoculum and fungicide sensitivity tests were performed following previously described procedures. Different ranges of inhibitor concentrations were used for population monitoring and for the detailed phenotyping of a selected set of individual field isolates and genetically modified strains. For fungicide sensitivity monitoring of European field populations, final inhibitors concentrations were between 100 mg.L^-1 and 0.0001 mg.L^-1 with uniform 10x dilution steps (7 inhibitor concentrations + DMSO control). For refined sensitivity analysis of a smaller panel of isolates final inhibitor concentrations ranged between 0.5 mM and 0.47 nM with uniform 4x dilution factor steps (11 inhibitor concentrations+ DMSO control).

The test system of test [8] is Zymoseptoria tritici isolates. Kind of test: Growth tests on solid agar at discriminatory fungicide concentrations. It counts as cell-based. The following applies: for Growth phenotype on SDHI-amended plate: AE agar, isofetamid 5 mg.L^-1, 10 DPI (procedure of Fig 6). An excerpt: Fig 6 Resistance to SHA-SDHIs in Z. tritici EU populations. […] Sensitivity data are sorted by genotype according to the presence of the ZtSDHC3 gene. ** p value of 0.0029 in Welch’s corrected unpaired t-test. (B) Solid agar growth of a collection of 93 Z. tritici isolates sampled in 2009 (same set as above). Individual strains from this collection are boxed and numbered 1 to 93. Boxes A and B correspond to reference resistant strains 06STD024 and 07STGB009 respectively. Box C corresponds to IPO323 reference sensitive isolate. The yellow framed boxes correspond to strains carrying the ZtSDHC3 gene. Yellow arrow designates strain 09STIR20.1 (number 78) carrying a non-functional alt-SDHC (frameshift, S6 Table).
A large scale spotting assay of 96 isolates (Fig 6) was performed using the V&P 96 floating pin tool VP408FP6 (V&P Scientific), equipped with flat tip FP6 pins of 1.58 mm diameter (resulting in approx. 0.4 μl transfer volume). Source cultures for cell spotting were grown in 100 μl YPD liquid medium in a 96 well flat bottom plate (Corning, 3370) at 18°C for 11 days (average cell density of 3.5·10^6/ml), then diluted 1:2x in fresh YPD medium and incubated for another 1.5 h before transfer with the pin tool (approx. 700 cells per spot) onto AE agar with or without fungicide. Plates were incubated at 20°C in the dark for up to 18 days. Smaller scale spotting assays (Figs 4 and 8) were performed using 5 days V8-agar plates inoculums adjusted to 2.10^6 spores.mL^-1 in water and diluted in steps of 3. 2μL of spore suspension was spotted on the plates, and the plates were incubated shielded from light at 21°C for 6 days.

Where [9] appears, read: IC50 ratio compared to IPO323 values.

Chain of SQR of 06STD024 (SDHC / altC) mitochondria (A0A1X7RQW2 36-181): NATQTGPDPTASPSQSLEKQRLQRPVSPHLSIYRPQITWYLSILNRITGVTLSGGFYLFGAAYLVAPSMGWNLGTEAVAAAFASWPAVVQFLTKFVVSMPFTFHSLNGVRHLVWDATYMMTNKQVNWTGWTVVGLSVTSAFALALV
Chain of SQR of 06STD024 (SDHC / altC) mitochondria (O42772 19-297): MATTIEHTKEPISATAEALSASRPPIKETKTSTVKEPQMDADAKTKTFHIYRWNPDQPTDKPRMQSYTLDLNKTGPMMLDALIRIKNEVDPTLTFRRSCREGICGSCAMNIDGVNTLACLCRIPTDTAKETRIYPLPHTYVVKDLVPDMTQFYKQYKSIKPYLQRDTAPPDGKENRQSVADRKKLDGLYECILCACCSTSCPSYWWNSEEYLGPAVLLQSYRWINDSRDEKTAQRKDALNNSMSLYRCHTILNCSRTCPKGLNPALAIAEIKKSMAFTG
Chain of SQR of 06STD024 (SDHC / altC) mitochondria (F9X9V6 1-193): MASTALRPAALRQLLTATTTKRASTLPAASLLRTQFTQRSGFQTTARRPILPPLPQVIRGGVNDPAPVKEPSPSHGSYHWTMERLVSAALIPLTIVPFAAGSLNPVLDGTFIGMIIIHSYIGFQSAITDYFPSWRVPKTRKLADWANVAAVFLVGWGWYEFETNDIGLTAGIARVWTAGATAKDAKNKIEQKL
Chain of SQR of 06STD024 (SDHC / altC) mitochondria (F9XH52 44-187): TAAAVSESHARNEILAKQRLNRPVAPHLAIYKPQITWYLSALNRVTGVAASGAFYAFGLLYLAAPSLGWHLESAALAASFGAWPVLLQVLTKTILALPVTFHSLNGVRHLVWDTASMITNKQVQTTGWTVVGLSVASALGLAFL
Chain of SQR of 06STD024 (SDHC / altC) mitochondria (F9WWR1 29-643 partner): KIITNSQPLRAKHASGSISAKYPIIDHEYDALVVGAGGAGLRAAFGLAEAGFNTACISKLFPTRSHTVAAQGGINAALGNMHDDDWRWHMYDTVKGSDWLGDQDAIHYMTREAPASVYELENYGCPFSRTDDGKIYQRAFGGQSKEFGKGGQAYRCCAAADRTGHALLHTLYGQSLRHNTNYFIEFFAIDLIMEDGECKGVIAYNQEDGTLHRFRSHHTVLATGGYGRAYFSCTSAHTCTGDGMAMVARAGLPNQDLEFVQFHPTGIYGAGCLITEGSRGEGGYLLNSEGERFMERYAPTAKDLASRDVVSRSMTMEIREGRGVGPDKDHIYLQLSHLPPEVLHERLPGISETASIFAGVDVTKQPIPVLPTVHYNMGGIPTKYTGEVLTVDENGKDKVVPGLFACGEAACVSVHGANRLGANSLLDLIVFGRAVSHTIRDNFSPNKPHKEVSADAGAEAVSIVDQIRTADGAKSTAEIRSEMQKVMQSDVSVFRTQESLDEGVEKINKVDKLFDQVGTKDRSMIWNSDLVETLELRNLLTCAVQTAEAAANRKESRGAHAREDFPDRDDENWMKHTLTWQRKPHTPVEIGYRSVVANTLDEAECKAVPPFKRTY
Chain of altC-SQR (altC) of D024 SDHC1 KO mitochondria (A0A1X7RQW2 36-181): as the sequence (A0A1X7RQW2 36-181) above
Chain of altC-SQR (altC) of D024 SDHC1 KO mitochondria (O42772 20-297): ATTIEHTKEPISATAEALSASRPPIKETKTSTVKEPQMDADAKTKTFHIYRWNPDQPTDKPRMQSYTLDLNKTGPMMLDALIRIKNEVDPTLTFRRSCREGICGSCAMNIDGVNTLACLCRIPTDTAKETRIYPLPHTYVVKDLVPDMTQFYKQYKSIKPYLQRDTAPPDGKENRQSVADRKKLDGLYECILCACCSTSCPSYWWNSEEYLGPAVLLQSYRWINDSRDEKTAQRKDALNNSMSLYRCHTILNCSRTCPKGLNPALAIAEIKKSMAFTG
Chain of altC-SQR (altC) of D024 SDHC1 KO mitochondria (F9X9V6 1-193): as the sequence (F9X9V6 1-193) above
Chain of altC-SQR (altC) of D024 SDHC1 KO mitochondria (F9WWR1 41-643 partner): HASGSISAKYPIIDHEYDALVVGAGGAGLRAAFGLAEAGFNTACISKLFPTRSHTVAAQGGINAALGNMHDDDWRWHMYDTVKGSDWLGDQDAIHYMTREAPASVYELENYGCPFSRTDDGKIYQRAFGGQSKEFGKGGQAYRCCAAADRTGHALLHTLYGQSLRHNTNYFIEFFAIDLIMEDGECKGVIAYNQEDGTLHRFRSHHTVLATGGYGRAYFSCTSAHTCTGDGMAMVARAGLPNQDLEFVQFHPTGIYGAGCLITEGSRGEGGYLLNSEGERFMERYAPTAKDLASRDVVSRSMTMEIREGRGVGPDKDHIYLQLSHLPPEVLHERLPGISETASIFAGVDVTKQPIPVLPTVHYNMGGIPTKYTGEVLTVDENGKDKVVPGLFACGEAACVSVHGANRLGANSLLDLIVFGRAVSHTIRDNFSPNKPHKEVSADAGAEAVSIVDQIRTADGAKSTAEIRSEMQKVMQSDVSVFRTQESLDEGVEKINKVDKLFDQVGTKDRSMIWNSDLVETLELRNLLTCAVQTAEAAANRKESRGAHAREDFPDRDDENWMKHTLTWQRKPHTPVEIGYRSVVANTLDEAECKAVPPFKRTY
Chain of SQR (SDHC / altC) of IPO323 pTet::SDHC3 transformant, repressed (F9XH52 44-187): as the sequence (F9XH52 44-187) above
Chain of SQR (SDHC / altC) of IPO323 pTet::SDHC3 transformant, repressed (O42772 20-297): as the sequence (O42772 20-297) above
Chain of SQR (SDHC / altC) of IPO323 pTet::SDHC3 transformant, repressed (F9X9V6 1-193): as the sequence (F9X9V6 1-193) above
Chain of SQR (SDHC / altC) of IPO323 pTet::SDHC3 transformant, repressed (A0A1X7RQW2 36-181): as the sequence (A0A1X7RQW2 36-181) above
Chain of SQR (SDHC / altC) of IPO323 pTet::SDHC3 transformant, repressed (F9WWR1 41-643 partner): as the sequence (F9WWR1 41-643 partner) above

Turning to `CC(C)CC(C)c1sccc1NC(=O)c1cn(C)nc1C(F)(F)F` (stereo not shown) [Penthiopyrad], the half-inhibitory concentration (IC50) in test [1] turned out to be 0.0014 ± 0.0003 µM; in test [2], 0.0019 ± 0.0004 µM; in test [3], 0.0018 ± 0.0001 µM; in test [4], 0.002 ± 0.0008 µM; in test [5], 0.0015 ± 0.0003 µM; in test [6] it was 0.0016 ± 0.0007 µM. Moreover, the “RF (resistance factor), pTet Repressed (SDHC / altC)” value in test [2] (setting [9]) amounted to 1.4. In addition, in test [4] (setting [9]), the “RF (resistance factor), 06STD024 (SDHC / altC)” value came to 1.4. Further, in test [5], the “RF (resistance factor), D024 SDHC3 KO (SDHC)” value (from here on “RF … (SDHC)”) is given as 1.1. In test [6] (setting [9]), the “RF (resistance factor), D024 SDHC1 KO (altC)” value is recorded as 1.2.
As for `Cn1cc(C(=O)NCCc2ccc(Cl)cc2Cl)c(C(F)F)n1` [Compound 1], the concentration for a half-maximal effect (EC50) amounted to 14700 nM in test [7] (read-out: EC50 (nM) Mean, strain 06STD024); 15700 nM in test [7] (read-out: EC50 (nM) Mean, strain 07STGB009); 6050 nM in test [7] (read-out: EC50 (nM) Mean, strain 09STD041); 6070 nM in test [7] (read-out: EC50 (nM) Mean, strain 09STD053); 7870 nM in test [7] (read-out: EC50 (nM) Mean, strain 09STF011); 4910 nM in test [7] (read-out: EC50 (nM) Mean, strain 09STF037). Besides, the EC50 in test [7] (read-out: EC50 (nM) Mean, strain 09STF112) turned out to be 8980 nM; in test [7] (read-out: EC50 (nM) Mean, strain 09STIR20.3), 4360 nM; in test [7] (read-out: EC50 (nM) Mean, strain Flu21 (SDHC1_A84I)), 49100 nM; in test [7] (read-out: EC50 (nM) Mean, strain IPO323), 3580 nM; in test [7] (read-out: EC50 (nM) Mean, strain IPO94269), 2710 nM; in test [7] (read-out: EC50 (nM) Mean, strain KO_SDHC1_T1), 125000 nM. For the same compound, the 50% effective concentration (EC50) in test [7] (read-out: EC50 (nM) Mean, strain KO_SDHC1_T3) is 78800 nM; in test [7] (read-out: EC50 (nM) Mean, strain KO_SDHC3_T4), 9090 nM; in test [7] (read-out: EC50 (nM) Mean, strain KO_SDHC3_T13), 7200 nM; in test [7] (read-out: EC50 (nM) Mean, strain pTet::SDHC3_I78A_T1), 4610 nM; in test [7] (read-out: EC50 (nM) Mean, strain pTet::SDHC3_I78A_T5), 7960 nM; in test [7] (read-out: EC50 (nM) Mean, strain pTet::SDHC3_I78A_T15), 3300 nM. The 50% effective concentration (EC50) in test [7] (read-out: EC50 (nM) Mean, strain pTet::SDHC3_I78A_T35) was determined as 4430 nM; in test [7] (read-out: EC50 (nM) Mean, strain pTet::SDHC3_T1), 33300 nM; in test [7] (read-out: EC50 (nM) Mean, strain pTet::SDHC3_T2), 35300 nM; in test [7] (read-out: EC50 (nM) Mean, strain pTet::SDHC3_T3), 22900 nM; in test [7] (read-out: EC50 (nM) Mean, strain pTet::SDHC3_T7), 35300 nM. The IC50 in test [1] stood at 0.113 ± 0.0109 µM; in test [2], 0.152 ± 0.0175 µM; in test [3], 0.484 ± 0.0428 µM; in test [4] it was 0.875 ± 0.159 µM; in test [5], 0.0794 ± 0.0076 µM; in test [6], 0.94 ± 0.238 µM. The “RF … (SDHC)” value in test [5] came out at 0.7.
For `CON(C(=O)c1cn(C)nc1C(F)F)[C@@H](C)Cc1ccc(Cl)cc1Cl` [Compound 3], the IC50 turned out to be 0.0007 ± 0.0002 µM in test [1], 0.0264 ± 0.0012 µM in test [4], 0.0008 ± 0.00013 µM in test [5] and 0.0227 ± 0.0008 µM in test [6]. Moreover, the “RF … (SDHC)” value in test [5] turned out to be 1.2.
With `Cc1cc(OC(C)C)ccc1C(=O)C(C)(C)NC(=O)c1sccc1C` [Isofetamid], the values for the IC50 in test [1] and in test [6] were 0.0009 ± 0.0001 µM and more than 50 µM, respectively. The “Growth on isofetamid-supplemented agar plate” value in test [8] (isolate 09STIR20.1 (ZtSDHC3 frameshift), 10 DPI, 5 mg.L^-1) was “did not grow”. The “Growth phenotype on SDHI-amended plate” value is “Very strong” in test [8] (strain 06STD024); “Very strong” in test [8] (strain 07STGB009); “Strong” in test [8] (strain 09STD041); “Strong” in test [8] (strain 09STD053); “Strong” in test [8] (strain 09STF011); “Weak” in test [8] (strain 09STF037). Also, the “Growth phenotype on SDHI-amended plate” value in test [8] (strain 09STF112) is “Strong”; in test [8] (strain 09STIR20.3) it was “Weak”; in test [8] (strain IPO323), “No”; in test [8] (strain IPO94269), “No”.

The record behind these values is PMC6941823, “A dispensable paralog of succinate dehydrogenase subunit C mediates standing resistance towards a subclass of SDHI fungicides in Zymoseptoria tritici” (PLoS Pathogens, 2019).
